Source: PubChem BioAssay (NCI)
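Cells were grown in 96-well plates and exposed to each compound for 48 hours at five concentrations; endpoints were interpolated linearly between bracketing concentrations, or set to the highest concentration if not reached. Abbreviation: GI50, concentration required for 50% inhibition of growth. Definition used: TGI = concentration required for complete inhibition of growth.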

Columns and labels:
Test in all cases: NCI-60 cell line screen, 48 h
A498 renal = test system: A498 renal
CAKI-1 renal = test system: CAKI-1 renal
HOP-62 NSCLC = test system: HOP-62 NSCLC
HT29 colon = test system: HT29 colon
MOLT-4 leukemia = test system: MOLT-4 leukemia
NCI-H23 lung = test system: NCI-H23 lung
OVCAR-8 ovarian = test system: OVCAR-8 ovarian
SN12C renal = test system: SN12C renal
UO-31 renal = test system: UO-31 renal
MCF7 breast = test system: MCF7 breast

## Cc1ccc(C)c(NC(=O)CC2SC(=Nc3ccccc3Cl)NC2=O)c1 (configuration not stated)
A498 renal
  TGI: > 100 µM
CAKI-1 renal
  TGI: > 100 µM
HOP-62 NSCLC
  TGI: > 100 µM
HT29 colon
  TGI: > 100 µM
MOLT-4 leukemia
  TGI: > 100 µM
NCI-H23 lung
  TGI: > 100 µM
OVCAR-8 ovarian
  TGI: > 100 µM
SN12C renal
  TGI: > 100 µM
UO-31 renal
  TGI: > 100 µM

## Cc1nc2sccn2c1C(=O)NC(=O)Nc1ccc(Cl)cc1
A498 renal
  TGI: > 100 µM
CAKI-1 renal
  TGI: > 100 µM
HOP-62 NSCLC
  TGI: > 100 µM
HT29 colon
  TGI: > 100 µM
MOLT-4 leukemia
  TGI: > 100 µM
NCI-H23 lung
  TGI: > 100 µM
OVCAR-8 ovarian
  TGI: > 100 µM
SN12C renal
  TGI: > 100 µM
UO-31 renal
  TGI: > 100 µM

## CCOC(=O)C(CNc1ccc(O)cc1)NC(=O)c1ccccc1 (configuration not stated)
A498 renal
  TGI: > 100 µM
CAKI-1 renal
  TGI: > 100 µM
HOP-62 NSCLC
  TGI: > 100 µM
HT29 colon
  TGI: > 100 µM
MOLT-4 leukemia
  TGI: > 100 µM
NCI-H23 lung
  TGI: > 100 µM
OVCAR-8 ovarian
  TGI: > 100 µM
SN12C renal
  TGI: > 100 µM
UO-31 renal
  TGI: > 100 µM

## CC1=C[C@H]2C[C@H](C)[C@H]3CC[C@H](C)[C@]4(C1)C(=O)C(O)=C(C)C(=O)[C@@]324
CAKI-1 renal
  GI50: 24.9 µM
  TGI: 66.1 µM
HOP-62 NSCLC
  GI50: 28.7 µM
  TGI: 83.6 µM
HT29 colon
  GI50: 27.8 µM
  TGI: > 100 µM
MCF7 breast
  GI50: > 100 µM
  TGI: > 100 µM
MOLT-4 leukemia
  GI50: 16.3 µM
  TGI: 37.4 µM
NCI-H23 lung
  GI50: 11 µM
  TGI: 29.7 µM
OVCAR-8 ovarian
  GI50: 40.4 µM
  TGI: > 100 µM
SN12C renal
  GI50: 28.7 µM
  TGI: > 100 µM
UO-31 renal
  GI50: 29.8 µM
  TGI: > 100 µM

## O=C(C/C(CCC(=O)N(Cc1ccccc1)Cc1ccccc1)=N/Nc1ccc([N+](=O)[O-])cc1[N+](=O)[O-])c1ccccc1
HOP-62 NSCLC
  TGI: > 100 µM
HT29 colon
  TGI: > 100 µM
MOLT-4 leukemia
  TGI: 73.9 µM
NCI-H23 lung
  TGI: > 100 µM
OVCAR-8 ovarian
  TGI: > 100 µM
UO-31 renal
  TGI: > 100 µM

## CCOC(=O)/C(=C/c1ccc(N(CCC#N)CCC#N)cc1C)NC(=O)/C=C/c1ccccc1
A498 renal
  TGI: > 100 µM
CAKI-1 renal
  TGI: > 100 µM
HOP-62 NSCLC
  TGI: > 100 µM
HT29 colon
  TGI: > 100 µM
MOLT-4 leukemia
  TGI: > 100 µM
NCI-H23 lung
  TGI: > 100 µM
OVCAR-8 ovarian
  TGI: > 100 µM
SN12C renal
  TGI: > 100 µM
UO-31 renal
  TGI: > 100 µM

## CC[N+](C)(CC)CC(C)(C)C(=O)/C=C/c1ccc(/C=C/C(=O)C(C)(C)C[N+](C)(CC)CC)cc1
A498 renal
  TGI: > 100 µM
CAKI-1 renal
  TGI: > 100 µM
HOP-62 NSCLC
  TGI: > 100 µM
HT29 colon
  TGI: > 100 µM
MOLT-4 leukemia
  TGI: > 100 µM
NCI-H23 lung
  TGI: > 100 µM
OVCAR-8 ovarian
  TGI: > 100 µM
SN12C renal
  TGI: > 100 µM
UO-31 renal
  TGI: > 100 µM

## O=C(CCc1nnc2s/c(=C\c3ccccc3Cl)c(=O)n12)Nc1cc(Cl)ccc1Cl
CAKI-1 renal
  TGI: > 100 µM
HOP-62 NSCLC
  TGI: > 100 µM
HT29 colon
  TGI: > 100 µM
MOLT-4 leukemia
  TGI: > 100 µM
NCI-H23 lung
  TGI: > 100 µM
OVCAR-8 ovarian
  TGI: > 100 µM
SN12C renal
  TGI: > 100 µM
UO-31 renal
  TGI: > 100 µM

## CC12CCC3c4cc(Br)c(O)c(Br)c4CCC3C1CCC2O (configuration not stated)
A498 renal
  TGI: 36.3 µM
CAKI-1 renal
  TGI: 31.5 µM
HT29 colon
  TGI: 29.1 µM
MCF7 breast
  TGI: 74.6 µM
MOLT-4 leukemia
  TGI: 42.2 µM
OVCAR-8 ovarian
  TGI: 42.1 µM
SN12C renal
  TGI: 42 µM
UO-31 renal
  TGI: 46.8 µM

## CN(C)CCNC(=O)c1cccc2ccc(-c3ccc(-c4ccccc4)cc3)nc12
A498 renal
  TGI: 11 µM
CAKI-1 renal
  TGI: 11 µM
HOP-62 NSCLC
  TGI: 10.3 µM
HT29 colon
  TGI: 3.72 µM
MOLT-4 leukemia
  TGI: 5.16 µM
NCI-H23 lung
  TGI: 16.6 µM
OVCAR-8 ovarian
  TGI: 7.66 µM
SN12C renal
  TGI: 20.2 µM
UO-31 renal
  TGI: 24.7 µM

## COc1ccc2[nH]c3c(C)cc([N+](=O)[O-])c(C)c3c2c1
A498 renal
  TGI: 59.6 µM
CAKI-1 renal
  TGI: > 100 µM
HT29 colon
  TGI: 83.8 µM
MOLT-4 leukemia
  TGI: > 100 µM
NCI-H23 lung
  TGI: > 100 µM
OVCAR-8 ovarian
  TGI: 79.9 µM
SN12C renal
  TGI: > 100 µM
UO-31 renal
  TGI: 71 µM
